Reference: ChEMBL document CHEMBL1144870 (J Med Chem, 2003)

Target: T1, Hypoxanthine-guanine phosphoribosyltransferase (Homo sapiens, UniProt P00492)
T1 sequence (P00492 whole entry): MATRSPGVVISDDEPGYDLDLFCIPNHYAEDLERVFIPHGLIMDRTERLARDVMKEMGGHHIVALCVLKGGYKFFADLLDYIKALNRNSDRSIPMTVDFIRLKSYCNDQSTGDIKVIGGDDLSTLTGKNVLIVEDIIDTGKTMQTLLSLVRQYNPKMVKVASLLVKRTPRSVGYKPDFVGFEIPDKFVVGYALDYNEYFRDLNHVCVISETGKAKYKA
Assay: Kinetic inhibition constant of compound with human Hypoxanthine Phosphoribosyltransferase (HPRT)

- Ki: 16 µM
Structure (SMILES): O=C(Nc1cc2c3ccccc3ccc2c2ccccc12)C(Cl)Cl
